# In article PMC5218480 (PLoS ONE, 2017):
# Tested on: MV-4-11 cells
# Experiment: Gene expression microarray analysis (Affymetrix PrimeView) and GSEA
# Format: cell-based, human
# Parameters: RFU PODN (11730768_x_at) / Fold change /veh PODN (11730768_x_at) / RFU LINC00158 (11744669_a_at) / Fold change /veh LINC00158 (11744669_a_at) / RFU DUSP10 (11751237_a_at) / Fold change /veh DUSP10 (11751237_a_at) / RFU ID3 (11757404_x_at) / Fold change /veh ID3 (11757404_x_at) / RFU PLEKHG5 (11737974_s_at) / Fold change /veh PLEKHG5 (11737974_s_at) / RFU LRRC4B (11730491_at) / Fold change /veh LRRC4B (11730491_at) / RFU GIMAP4 (11747438_a_at) / Fold change /veh GIMAP4 (11747438_a_at) / RFU KRT8 (11758183_x_at) / Fold change /veh KRT8 (11758183_x_at) / RFU CNN1 (11734310_a_at) / Fold change /veh CNN1 (11734310_a_at) / RFU VPS37D (11726825_at) / Fold change /veh VPS37D (11726825_at) / RFU C10orf10 (11716522_x_at) / Fold change /veh C10orf10 (11716522_x_at) / RFU KIR2DL2 /// KIR2DL4 /// KIR2DL5A /// KIR2DL5B /// KIR2DS1 /// KIR2DS2 /// KIR2DS3 /// KIR2DS4 /// KIR3DL3 /// KIR3DL3 /// KIR3DS1 (11738374_at) / Fold change /veh KIR2DL2 /// KIR2DL4 /// KIR2DL5A /// KIR2DL5B /// KIR2DS1 /// KIR2DS2 /// KIR2DS3 /// KIR2DS4 /// KIR3DL3 /// KIR3DL3 /// KIR3DS1 (11738374_at) / RFU C1QL1 (11718748_at) / Fold change /veh C1QL1 (11718748_at) / RFU TMPRSS4 (11747572_a_at) / Fold change /veh TMPRSS4 (11747572_a_at) / RFU HAMP (11756126_x_at) / Fold change /veh HAMP (11756126_x_at) / RFU RNFT2 (11725882_a_at) / Fold change /veh RNFT2 (11725882_a_at) / RFU NR4A2 (11747474_a_at) / Fold change /veh NR4A2 (11747474_a_at) / RFU ABCC12 (11746883_a_at) / Fold change /veh ABCC12 (11746883_a_at) / RFU TMEM136 (11760407_x_at) / Fold change /veh TMEM136 (11760407_x_at) / RFU CLDN22 /// WWC2 (11732394_at) / Fold change /veh CLDN22 /// WWC2 (11732394_at) / RFU HLA-DPB1 (11760878_x_at) / Fold change /veh HLA-DPB1 (11760878_x_at) / RFU SPINT1 (11716480_a_at) / Fold change /veh SPINT1 (11716480_a_at) / RFU GAP43 (11754022_s_at) / Fold change /veh GAP43 (11754022_s_at) / RFU A4GNT (11735810_at) / Fold change /veh A4GNT (11735810_at) / RFU PRB3 (11715151_x_at) / Fold change /veh PRB3 (11715151_x_at) / RFU TUBB4B (11761932_at) / Fold change /veh TUBB4B (11761932_at) / RFU CAPN14 (11732068_a_at) / Fold change /veh CAPN14 (11732068_a_at) / RFU TMCC2 (11721928_a_at) / Fold change /veh TMCC2 (11721928_a_at) / RFU IRGQ (11745062_a_at) / Fold change /veh IRGQ (11745062_a_at) / RFU FAM174B (11720279_a_at) / Fold change /veh FAM174B (11720279_a_at) / RFU TMPRSS4 (11748680_a_at) / Fold change /veh TMPRSS4 (11748680_a_at) / RFU FAM212B (11763350_a_at) / Fold change /veh FAM212B (11763350_a_at) / RFU PLEKHG5 (11743358_a_at) / Fold change /veh PLEKHG5 (11743358_a_at) / RFU ZSCAN30 (11745921_a_at) / Fold change /veh ZSCAN30 (11745921_a_at) / RFU CMKLR1 (11741424_a_at) / Fold change /veh CMKLR1 (11741424_a_at) / RFU LOC101060620 /// MAPK8IP1 (11723275_at) / Fold change /veh LOC101060620 /// MAPK8IP1 (11723275_at) / RFU SPTSSB (11747773_x_at) / Fold change /veh SPTSSB (11747773_x_at) / RFU PRSS12 (11739890_at) / Fold change /veh PRSS12 (11739890_at) / RFU BIN1 (11741810_x_at) / Fold change /veh BIN1 (11741810_x_at) / RFU WNT11 (11732464_a_at) / Fold change /veh WNT11 (11732464_a_at) / RFU C10orf10 (11716521_a_at) / Fold change /veh C10orf10 (11716521_a_at) / RFU C5orf56 (11738089_at) / Fold change /veh C5orf56 (11738089_at) / RFU CYB561 (11721691_x_at) / Fold change /veh CYB561 (11721691_x_at) / RFU ANKRD19P (11752326_a_at) / Fold change /veh ANKRD19P (11752326_a_at) / RFU OR2T12 /// OR2T33 /// OR2T8 (11738714_s_at) / Fold change /veh OR2T12 /// OR2T33 /// OR2T8 (11738714_s_at) / RFU VCAN (11748164_a_at) / Fold change /veh VCAN (11748164_a_at) / RFU JSRP1 (11732532_at) / Fold change /veh JSRP1 (11732532_at) / RFU KRTAP10-11 (11738290_x_at) / Fold change /veh KRTAP10-11 (11738290_x_at) / RFU MYO3A (11730013_a_at) / Fold change /veh MYO3A (11730013_a_at) / RFU EBF3 (11725865_a_at) / Fold change /veh EBF3 (11725865_a_at) / RFU CAMK2N1 (11719241_x_at) / Fold change /veh CAMK2N1 (11719241_x_at) / RFU C5orf56 (11738088_a_at) / Fold change /veh C5orf56 (11738088_a_at) / RFU OLFML3 (11715873_a_at) / Fold change /veh OLFML3 (11715873_a_at) / RFU LOC100653217 /// NTM (11731650_a_at) / Fold change /veh LOC100653217 /// NTM (11731650_a_at) / RFU MAPK11 (11762145_a_at) / Fold change /veh MAPK11 (11762145_a_at) / RFU FIZ1 (11724087_x_at) / Fold change /veh FIZ1 (11724087_x_at) / RFU OASL (11726364_x_at) / Fold change /veh OASL (11726364_x_at) / RFU SOX15 (11748057_x_at) / Fold change /veh SOX15 (11748057_x_at) / RFU CD79A (11719716_a_at) / Fold change /veh CD79A (11719716_a_at) / RFU HIST1H1D (11736915_at) / Fold change /veh HIST1H1D (11736915_at) / RFU CASKIN2 (11723855_a_at) / Fold change /veh CASKIN2 (11723855_a_at) / RFU LOC730098 (11760151_x_at) / Fold change /veh LOC730098 (11760151_x_at) / RFU OR4N2 (11742367_at) / Fold change /veh OR4N2 (11742367_at) / RFU PRRT2 (11749266_a_at) / Fold change /veh PRRT2 (11749266_a_at) / RFU SNX32 (11753110_a_at) / Fold change /veh SNX32 (11753110_a_at) / RFU CDHR5 (11726645_a_at) / Fold change /veh CDHR5 (11726645_a_at) / RFU RCAN1 (11760418_a_at) / Fold change /veh RCAN1 (11760418_a_at) / RFU FAM167A (11723789_a_at) / Fold change /veh FAM167A (11723789_a_at) / RFU FAM26E (11764081_at) / Fold change /veh FAM26E (11764081_at) / RFU ISYNA1 (11749810_s_at) / Fold change /veh ISYNA1 (11749810_s_at) / RFU ACY1 (11761880_at) / Fold change /veh ACY1 (11761880_at) / RFU 11764098_at / Fold change /veh 11764098_at / RFU SAMD14 (11745864_x_at) / Fold change /veh SAMD14 (11745864_x_at) / RFU NPB (11741838_a_at) / Fold change /veh NPB (11741838_a_at) / RFU TMPRSS6 (11731388_a_at) / Fold change /veh TMPRSS6 (11731388_a_at) / RFU KRTAP10-2 (11738614_at) / Fold change /veh KRTAP10-2 (11738614_at) / RFU ARHGAP8 /// PRR5-ARHGAP8 (11727945_x_at) / Fold change /veh ARHGAP8 /// PRR5-ARHGAP8 (11727945_x_at) / RFU KRTAP5-7 /// NADSYN1 (11734609_at) / Fold change /veh KRTAP5-7 /// NADSYN1 (11734609_at) / RFU RASL12 (11751679_a_at) / Fold change /veh RASL12 (11751679_a_at) / RFU CDKN2B (11736163_a_at) / Fold change /veh CDKN2B (11736163_a_at) / RFU PRF1 (11729649_at) / Fold change /veh PRF1 (11729649_at) / RFU, ZNF638 /// ZNF638-IT1 / Fold change vs veh, ZNF638 /// ZNF638-IT1 / RFU, PANK3 / Fold change vs veh, PANK3 / RFU, SH3YL1 / Fold change vs veh, SH3YL1 / RFU, ZEB2 / Fold change vs veh, ZEB2 / RFU, NRIP1 / Fold change vs veh, NRIP1 / RFU, PTTG1IP / Fold change vs veh, PTTG1IP / RFU, CAPN2 / Fold change vs veh, CAPN2 / RFU, MED14 / Fold change vs veh, MED14 / RFU, SNORA58 / Fold change vs veh, SNORA58 / RFU, C1orf63 / Fold change vs veh, C1orf63 / RFU, LRRFIP1 / Fold change vs veh, LRRFIP1 / RFU, NDUFAF7 / Fold change vs veh, NDUFAF7 / RFU, SLC12A2 / Fold change vs veh, SLC12A2 / RFU, IBTK / Fold change vs veh, IBTK / RFU, ESF1 / Fold change vs veh, ESF1 / Fold change vs veh, TMEM50B / RFU, TAOK1 / Fold change vs veh, TAOK1 / RFU, ACBD3 / Fold change vs veh, ACBD3 / RFU, TMA16 / Fold change vs veh, TMA16 / RFU, RWDD3 / Fold change vs veh, RWDD3 / RFU, BCAT1 / Fold change vs veh, BCAT1 / RFU, EDEM3 / Fold change vs veh, EDEM3 / RFU, TMEM33 / Fold change vs veh, TMEM33 / RFU, WDR75 / Fold change vs veh, WDR75 / RFU, AHCTF1 / Fold change vs veh, AHCTF1 / RFU, TFRC / Fold change vs veh, TFRC / RFU, ZDHHC17 / Fold change vs veh, ZDHHC17 / RFU, NOM1 / Fold change vs veh, NOM1 / RFU, ARL8B / Fold change vs veh, ARL8B / RFU, ZBTB11 / Fold change vs veh, ZBTB11 / RFU, TAMM41 / Fold change vs veh, TAMM41 / RFU, KIAA1704 /// LOC100996395 / Fold change vs veh, KIAA1704 /// LOC100996395 / RFU, ING1 / Fold change vs veh, ING1 / RFU, TRMT61B / Fold change vs veh, TRMT61B / RFU, FUBP3 / Fold change vs veh, FUBP3 / RFU, TP53 / Fold change vs veh, TP53 / RFU, TNKS2 / Fold change vs veh, TNKS2 / RFU, ZFP14 / Fold change vs veh, ZFP14 / RFU, ACTR2 / Fold change vs veh, ACTR2 / RFU, PPP3R1 / Fold change vs veh, PPP3R1 / RFU, PIK3R1 / Fold change vs veh, PIK3R1 / RFU, HNRNPA1 / Fold change vs veh, HNRNPA1 / RFU, RNF170 / Fold change vs veh, RNF170 / RFU, ZNF28 / Fold change vs veh, ZNF28 / RFU, RNGTT / Fold change vs veh, RNGTT / RFU, OGT / Fold change vs veh, OGT / RFU, BRD1 / Fold change vs veh, BRD1 / RFU, MARS / Fold change vs veh, MARS / RFU, ZNF655 / Fold change vs veh, ZNF655 / RFU, FAHD1 / Fold change vs veh, FAHD1 / RFU, BDP1 / Fold change vs veh, BDP1 / RFU, LRRCC1 / Fold change vs veh, LRRCC1 / RFU, ARID1A / Fold change vs veh, ARID1A / RFU, ZNF146 / Fold change vs veh, ZNF146 / RFU, ZNF330 / Fold change vs veh, ZNF330 / RFU, GPN3 / Fold change vs veh, GPN3 / RFU, C9orf123 / Fold change vs veh, C9orf123 / RFU, N4BP2L2 / Fold change vs veh, N4BP2L2 / RFU, ARFIP1 / Fold change vs veh, ARFIP1 / RFU, FAM179B / Fold change vs veh, FAM179B / RFU, BCL10 / Fold change vs veh, BCL10 / RFU, UHRF1BP1L / Fold change vs veh, UHRF1BP1L / RFU, BET1 / Fold change vs veh, BET1 / RFU, CNOT2 / Fold change vs veh, CNOT2 / RFU, ZNF268 / Fold change vs veh, ZNF268 / Fold change vs veh, ZNF507 / RFU, DGCR2 / Fold change vs veh, DGCR2 / RFU, WDSUB1 / Fold change vs veh, WDSUB1 / Fold change vs veh, HSP90B1 /// MIR3652 / RFU, ADSS / Fold change vs veh, ADSS / RFU, GK / Fold change vs veh, GK / RFU, ZNF148 / Fold change vs veh, ZNF148 / RFU, TAF9 / Fold change vs veh, TAF9 / RFU, SLC1A5 / Fold change vs veh, SLC1A5 / RFU, SLMO2 / Fold change vs veh, SLMO2 / RFU, ABCC4 / Fold change vs veh, ABCC4 / RFU, LOC101060439 /// RAP1B / Fold change vs veh, LOC101060439 /// RAP1B / RFU, RFX7 / Fold change vs veh, RFX7 / RFU, GTPBP10 / Fold change vs veh, GTPBP10 / RFU, CNEP1R1 / Fold change vs veh, CNEP1R1 / RFU, BIVM-ERCC5 /// ERCC5 / Fold change vs veh, BIVM-ERCC5 /// ERCC5 / RFU, ILF3 / Fold change vs veh, ILF3 / RFU 11762660_at / Fold change /veh 11762660_at / RFU VCAN (11757783_s_at) / Fold change /veh VCAN (11757783_s_at) / RFU DDX43 (11728927_at) / Fold change /veh DDX43 (11728927_at) / RFU KRT8 (11758188_x_at) / Fold change /veh KRT8 (11758188_x_at) / RFU NKD1 (11759106_at) / Fold change /veh NKD1 (11759106_at) / RFU SRD5A1 (11742802_a_at) / Fold change /veh SRD5A1 (11742802_a_at) / RFU TPSAB1 /// TPSB2 (11721975_s_at) / Fold change /veh TPSAB1 /// TPSB2 (11721975_s_at) / RFU GSTM3 (11746129_a_at) / Fold change /veh GSTM3 (11746129_a_at) / RFU IL23R (11737362_x_at) / Fold change /veh IL23R (11737362_x_at) / RFU TMEM51 (11727254_a_at) / Fold change /veh TMEM51 (11727254_a_at) / RFU PIWIL2 (11732686_x_at) / Fold change /veh PIWIL2 (11732686_x_at) / RFU ORM1 (11744905_x_at) / Fold change /veh ORM1 (11744905_x_at) / RFU CCDC152 (11743942_at) / Fold change /veh CCDC152 (11743942_at) / RFU ECM1 (11717891_a_at) / Fold change /veh ECM1 (11717891_a_at) / RFU IL23R (11748794_a_at) / Fold change /veh IL23R (11748794_a_at) / RFU TNFAIP8L3 (11732012_x_at) / Fold change /veh TNFAIP8L3 (11732012_x_at) / RFU MBOAT4 (11741988_at) / Fold change /veh MBOAT4 (11741988_at) / RFU 11764193_at / Fold change /veh 11764193_at / RFU TMEM53 (11763286_at) / Fold change /veh TMEM53 (11763286_at) / RFU MAGEB2 (11727129_at) / Fold change /veh MAGEB2 (11727129_at) / RFU TMEM200A (11744735_a_at) / Fold change /veh TMEM200A (11744735_a_at) / RFU CCDC152 (11751479_a_at) / Fold change /veh CCDC152 (11751479_a_at) / RFU FAM211A (11726209_a_at) / Fold change /veh FAM211A (11726209_a_at) / RFU RGS16 (11746705_a_at) / Fold change /veh RGS16 (11746705_a_at) / RFU VCAN (11755009_s_at) / Fold change /veh VCAN (11755009_s_at) / RFU RHOB (11743442_s_at) / Fold change /veh RHOB (11743442_s_at) / RFU RGS16 (11720943_a_at) / Fold change /veh RGS16 (11720943_a_at) / RFU RGS16 (11720944_at) / Fold change /veh RGS16 (11720944_at) / RFU, VPS4B / Fold change vs veh, VPS4B / RFU, CREB1 / Fold change vs veh, CREB1 / RFU, DNAJC13 / Fold change vs veh, DNAJC13 / RFU, GNAQ / Fold change vs veh, GNAQ / RFU, CDK5R1 / Fold change vs veh, CDK5R1 / RFU, ZRANB3 / Fold change vs veh, ZRANB3 / RFU, CUL4A / Fold change vs veh, CUL4A / RFU, CCNY / Fold change vs veh, CCNY / RFU, UFL1 / Fold change vs veh, UFL1 / RFU, COG3 / Fold change vs veh, COG3 / RFU, DIAPH2 / Fold change vs veh, DIAPH2 / RFU, SKA2 / Fold change vs veh, SKA2 / RFU, AFF3 / Fold change vs veh, AFF3 / RFU, LMF1 / Fold change vs veh, LMF1 / RFU, IPO11 / Fold change vs veh, IPO11 / RFU, DFFB / Fold change vs veh, DFFB / RFU, FOXP1 / Fold change vs veh, FOXP1 / RFU, CARD8 / Fold change vs veh, CARD8 / RFU, STRN3 / Fold change vs veh, STRN3 / RFU, ADK / Fold change vs veh, ADK / RFU, RASSF2 / Fold change vs veh, RASSF2 / RFU, WIPF1 / Fold change vs veh, WIPF1 / RFU, LARP1B / Fold change vs veh, LARP1B / RFU, RASA1 / Fold change vs veh, RASA1 / RFU, RB1 / Fold change vs veh, RB1 / RFU, PPFIA1 / Fold change vs veh, PPFIA1 / RFU, MAT2A / Fold change vs veh, MAT2A / RFU, CCT5 / Fold change vs veh, CCT5 / RFU, WDR92 / Fold change vs veh, WDR92 / RFU, CUX1 / Fold change vs veh, CUX1 / RFU, TTC7A / Fold change vs veh, TTC7A / RFU, TMEM135 / Fold change vs veh, TMEM135 / RFU, DEPTOR / Fold change vs veh, DEPTOR / RFU, CPM / Fold change vs veh, CPM / RFU, DNAJB6 / Fold change vs veh, DNAJB6 / RFU, CACNA2D3 / Fold change vs veh, CACNA2D3 / RFU, DTX4 / Fold change vs veh, DTX4 / RFU, TFCP2 / Fold change vs veh, TFCP2 / RFU, GMCL1 /// GMCL1P1 / Fold change vs veh, GMCL1 /// GMCL1P1 / RFU, AEBP2 / Fold change vs veh, AEBP2 / RFU, SNHG1 /// SNORD22 /// SNORD25 /// SNORD26 /// SNORD27 /// SNORD28 /// SNORD29 /// SNORD31 / Fold change vs veh, SNHG1 /// SNORD22 /// SNORD25 /// SNORD26 /// SNORD27 /// SNORD28 /// SNORD29 /// SNORD31 / Fold change (Aza/veh), C12orf56 (ProbeSet 11735607_a_at) / Fold change (ACY-1035/veh), C12orf56 (ProbeSet 11735607_a_at) / Fold change (Aza/veh), FGFR1OP (ProbeSet 11751329_s_at) / Fold change (ACY-1035/veh), FGFR1OP (ProbeSet 11751329_s_at) / Fold change (Aza/veh), VPS36 (ProbeSet 11739960_a_at) / Fold change (ACY-1035/veh), VPS36 (ProbeSet 11739960_a_at) / RFU SYPL1 (11715823_x_at) / Fold change /veh SYPL1 (11715823_x_at) / RFU IGFBP7 (11715501_s_at) / Fold change /veh IGFBP7 (11715501_s_at) / RFU REEP3 (11722064_at) / Fold change /veh REEP3 (11722064_at) / RFU IGLL1 (11728026_x_at) / Fold change /veh IGLL1 (11728026_x_at): dose or concentration left out as unconfirmed
# Details: ProbeSet 11748670_a_at; LIST B
structure (smiles),measurement,value
Nc1ncn([C@@H]2O[C@H](CO)[C@@H](O)[C@H]2O)c(=O)n1 [azacitidine],"RFU, PIK3R1",80.66 RFU
